Experiments:
Format in all cases: cell-based, human
GABAA receptors = test: Patch-clamp single-channel current recording in CD4+ T cells; details: GABA 100 or 500 nM; n=54 cells; FIG. 3i
Description: GABA-activated currents were recorded by the patch-clamp technique as previously described (Bjurstom et al., 2008, Jin et al., 2011a). Extracellular recording solution contained (in mM): 145 NaCl, 3 KCl, 1 CsCl, 1 CaCl2, 1 MgCl2, 10 glucose and 10 TES; the pH was adjusted to 7.4 with NaOH. To record in the whole-cell configuration, the pipette solution contained (in mM): 136 CsCl, 20 KCl, 1 MgCl2, 3 MgATP and 10 TES; pH was adjusted to 7.3 with CsOH. The pipette solution for the cell-attached configuration contained (in mM): 69 NaCl, 5 KCl, 75 CsCl, 1 CaCl2, 1 MgCl2 and 10 TES; pH was adjusted to 7.4 with NaOH. […] The pipette potential (Vp) was −80 mV (hyperpolarizing) in the whole-cell configuration and −60 mV (depolarizing) in the cell-attached configuration.

[1] = system: non-responder CD4+ T cells; test: Multiplex PEA of cytokines released into culture medium by non-responder CD4+ T cells
Description: (§1) The proliferation of freshly isolated human PBMCs or CD4^+ T cells was evaluated with MTT (3-(4,5-Dimethylthiazol-2-yl)-2,5-Diphenyltetrazolium Bromide) assay (Ring et al., 2012). Cells were suspended in complete medium (RPMI 1640 supplemented with 2 mM glutamine, 25 mM HEPES, 10% heat inactivated fetal bovine serum, 100 U/ml penicillin, 10 mg/ml streptomycin, 5 mM R-mercaptoethanol) in a concentration 1 million cells per milliliter. The assay was performed in 96-well plates in duplicates or triplicates, where each well was pre-coated with 3 μg/ml anti-CD3 antibody for 3-5 h at 37° C. Each well was loaded with 100,000 cells. Drugs were added to the wells at the relevant concentrations. The plate was incubated for 68 h at 37° C. (95% O2, 5% CO2) and then, a media-soluble tetrazolium dye MTT was added to a final concentration of 1 mM after which the plate was incubated for additional 4 h. The plate was then centrifuged at 2,000 RPM for 10 min to pellet the insoluble purple formazan crystals. The supernatant culture media was collected, stored at −80° C. and used for analysis of cytokines using the multiplex proximity extension assay (PEA). The formazan crystal pellet was dissolved in DMSO and the plate was read within 10 min using a Multiskan MS plate reader (Labsystems) at 550 nm. The optical density value was used as the proliferation index value. Drugs were purchased from Sigma-Aldrich or Tocris (Bristol, UK).
Plasma samples, and culture media samples that were collected from plate wells at the end of the proliferation assay, were analyzed by multiplex PEA with an Olink Inflammation […] panel, targeting 92 proteins related to inflammation (Olink Proteomics, Uppsala, Sweden) as previously described (Edvinsson et al., 2017, Assarsson et al., 2014, Larsson et al., 2015, Larssen et al., 2017). Briefly, 1 μl of sample (plasma samples or cell culture media samples) or negative control was mixed with 3 μl probe solution containing a set of 92 paires DNA-oligonucleotide-conjugated antibodies. Upon recognition of a target protein by a pair of probes, the DNA oligonucletodies on the antibodies are brought in proximity and hybridize to each other, followed by enzymatic DNA polymerization to form a new DNA molecule. The newly formed DNA molecule is then amplified and quantified using a microfluidic real-time qPCR, BioMark™ HD (Fluidigm, South San Francisco, Calif., USA). The generated quantification cycle (Cq) values are normalized against spiked-in controls to convert Cq values to Normalized Protein eXpression (NPX) value on log2 scale. NPX is an arbitrary unit, which is positively correlated to protein concentration. These NPX data were then converted to linear data, using the formula 2^NPX, prior to further statistical analysis. Limit of detection (LOD) for each protein was defined as three standard deviations above the background. Proteins with levels below LOD were excluded from further data analysis.

[2] = system: PBMCs from T1D individuals; test: Proliferation of anti-CD3 stimulated PBMCs from T1D donors; details: Example 1, FIG. 1D; PBMCs from all 13 T1D donors; 100 nM GABA
Description: Peripheral Blood Mononuclear cells (PBMCs) are isolated from blood from donors diagnosed with Type-1 diabetes and healthy controls. Alternatively, CD4-positive cells (T-cells) are further isolated from PBMCs by e.g. MACS beads, FACS or similar technology. […] A reasonable replication, such as 3 cultures of each condition, is performed. A normalized proliferation value for each culture is then calculated by a standard proliferation measurement method, such as by CFSE staining or radioactive thymidine incorporation (requiring additional factors be added during culture) or by staining for proliferation markers.
In the FIG. 1, the proliferation of cells retrieved from 13 T1D subjects and 15 healthy controls were inspected. […] A normalized proliferation index was calculated for each culture.
as §1, with “The optical density value was used as the proliferation index value. Drugs were purchased from Sigma-Aldrich or Tocris (Bristol, UK).” left out

[3] = GABA 100 nM, non-responder CD4+ T cells, normalized to control
[4] = GABA 500 nM, non-responder CD4+ T cells, normalized to control

## NCCCC(=O)O [GABA, gamma-aminobutyric acid]
GABAA receptors
  GABAA single-channel currents: activated
[1]; [3]
  IL-1 alpha in culture medium, % Mean: 112.8%
  MMP-1 in culture medium, % Mean: 124.2%
[1]; [4]
  IL-5 in culture medium, % Mean: 87.2%
  PD-L1 in culture medium, % Mean: 120.4%
  TGF-alpha in culture medium, % Mean: 109.5%
[1]; GABA 100 and 500 nM, at each concentration
  number of cytokines whose secretion was regulated: four
[2]
  proliferation in the presence of GABA: proliferated less
